Laboratory results reported in ChEMBL document CHEMBL5576112, “Synthesis, in silico, in vitro evaluation of furanyl- and thiophenyl-3-phenyl-1H-indole-2-carbohydrazide derivatives as tubulin inhibitors and anticancer agents” (RSC Med Chem, 2024).
The source made the active and inactive calls. The calls are words filed in the database; no cut-off is given here.

Columns and labels:
[1] = system: MDA-MB-231; assay: Induction of apoptosis in human MDA-MB-231 cells assessed as viable cells at 10 uM measured after 24 hrs by Annexin V/7-AAD double staining based muse cell analyzer method (reference value: 96.21%); type: functional; settings: read-out: Activity
[2] = system: SK-MEL-5; assay: Growth inhibition of human SK-MEL-5 cells at 10 uM measured after 48 hrs by sulforhodamine B assay; type: functional, cell-based
[3] = system: MDA-MB-231; assay: Cytotoxicity against human MDA-MB-231 cells assessed as reduction in cell viability measured after 48 hrs by MTT assay; type: functional, cell-based; settings: MDA-MB-231, 48 h
[4] = system: SK-MEL-5; assay: Growth inhibition of human SK-MEL-5 cells measured after 48 hrs by sulforhodamine B assay; type: functional; settings: for CC50: read-out: LC50 (the source's name)
[5] = system: MDA-MB-435; assay: Growth inhibition of human MDA-MB-435 cells measured after 48 hrs by sulforhodamine B assay; type: functional; settings: for CC50: read-out: LC50 (the source's name)
[6] = system: MDA-MB-231; assay: Induction of apoptosis in human MDA-MB-231 cells assessed as late apoptotic cells at 10 uM measured after 24 hrs by Annexin V/7-AAD double staining based muse cell analyzer method (reference value: 1.44%); type: functional
[7] = organism: Sus scrofa; assay: Inhibition of porcine brain tubulin polymerization assessed as microtubule destabilization at 10 uM measured at 60 secs interval for 60 mins in presence of GTP by fluorescence assay
[8] = system: MDA-MB-231; assay: Induction of morphological changes in human MDA-MB-231 cells assessed as loss of cell polarity at 10 uM measured after 24 hrs; type: functional, cell-based
[9] = system: MDA-MB-231; assay: Induction of apoptosis in human MDA-MB-231 cells assessed as early apoptotic cells at 10 uM measured after 24 hrs by Annexin V/7-AAD double staining based muse cell analyzer method (reference value: 1.64%); type: functional
[10] = system: MDA-MB-231; assay: Cell cycle arrest in human MDA-MB-231 cells assessed as accumulation of cells at G0/G1 phase at 10 uM measured after 24 hrs by Muse cell analyzer based assay (reference value: 59.7%); type: functional
[11] = system: NCI-H522; assay: Growth inhibition of human NCI-H522 cells measured after 48 hrs by sulforhodamine B assay; type: functional; settings: for CC50: read-out: LC50 (the source's name)
[12] = system: NCI-H522; assay: Growth inhibition of human NCI-H522 cells at 10 uM measured after 48 hrs by sulforhodamine B assay; type: functional, cell-based
[13] = Cytotoxicity against human HaCaT cells assessed as reduction in cell viability measured after 48 hrs by MTT assay; type: toxicity, cell-based
[14] = system: MDA-MB-231; assay: Cell cycle arrest in human MDA-MB-231 cells assessed as accumulation of cells at G2/M phase at 10 uM measured after 24 hrs by Muse cell analyzer based assay (reference value: 27.3%); type: functional
[15] = system: COLO 205; assay: Growth inhibition of human COLO 205 cells at 10 uM measured after 48 hrs by sulforhodamine B assay; type: functional, cell-based
[16] = system: COLO 205; assay: Growth inhibition of human COLO 205 cells measured after 48 hrs by sulforhodamine B assay; type: functional; settings: for CC50: read-out: LC50 (the source's name)
[17] = system: MDA-MB-231; assay: Induction of apoptosis in human MDA-MB-231 cells assessed as necrotic cells at 10 uM measured after 24 hrs by Annexin V/7-AAD double staining based muse cell analyzer method (reference value: 0.72%); type: functional
[18] = system: MDA-MB-435; assay: Growth inhibition of human MDA-MB-435 cells at 10 uM measured after 48 hrs by sulforhodamine B assay; type: functional, cell-based
[19] = system: MDA-MB-231; assay: Cell cycle arrest in human MDA-MB-231 cells assessed as accumulation of cells at S phase at 10 uM measured after 24 hrs by Muse cell analyzer based assay (reference value: 12.9%); type: functional
[20] = organism: Sus scrofa; assay: Inhibition of porcine brain tubulin polymerization assessed as microtubule destabilization by measuring relative fluorescence unit at 10 uM measured at 60 secs interval for 60 mins in presence of GTP by fluorescence assay
[21] = system: MCF7; assay: Growth inhibition of human MCF7 cells at 10 uM measured after 48 hrs by sulforhodamine B assay; type: functional, cell-based
[22] = system: UACC-62; assay: Growth inhibition of human UACC-62 cells at 10 uM measured after 48 hrs by sulforhodamine B assay; type: functional, cell-based
[23] = system: OVCAR-8; assay: Growth inhibition of human OVCAR-8 cells at 10 uM measured after 48 hrs by sulforhodamine B assay; type: functional, cell-based
[24] = system: UACC-62; assay: Growth inhibition of human UACC-62 cells measured after 48 hrs by sulforhodamine B assay; type: functional
[25] = system: MCF7; assay: Growth inhibition of human MCF7 cells measured after 48 hrs by sulforhodamine B assay; type: functional
[26] = system: K562; assay: Growth inhibition of human K562 cells measured after 48 hrs by sulforhodamine B assay; type: functional
[27] = system: OVCAR-8; assay: Growth inhibition of human OVCAR-8 cells measured after 48 hrs by sulforhodamine B assay; type: functional
[28] = system: K562; assay: Growth inhibition of human K562 cells at 10 uM measured after 48 hrs by sulforhodamine B assay; type: functional, cell-based
[29] = read-out: LC50 (the source's name)

Row | Compound | viability at 10 µM [1] | growth inhibition (GI) [2] | IC50 [3] | GI50 [4] | CC50 [4] | GI50 [5] | CC50 [5] | Activity [6] | inhibition [7] | Activity [8] | Activity [9] | Activity [10] | GI50 [11] | CC50 [11] | growth inhibition (GI) [12] | IC50 at 48 h [13] | growth inhibition (GI) [15] | GI50 [16] | CC50 [16] | growth inhibition (GI) [18] | other results
1 | COc1csc(/C=N/NC(=O)c2[nH]c3ccc(Br)cc3c2-c2ccccc2)c1 | 66.7% | Active | 160 nM | 18.6 nM | 0.0749 µM | 19.1 nM | 259 nM | 20.25% | inactive | Active | 6.44% | 15.6% | < 10 nM | > 100 µM | Active | 30 nM | Active | 19.1 nM | 70.8 nM | Active | Activity [14]: 74.5%; Activity [17]: 6.61%; Activity [19]: 10%
2 | COc1ccsc1/C=N/NC(=O)c1[nH]c2ccc(Br)cc2c1-c1ccccc1 | 85.8% | Active | 4130 nM | 321 nM | > 100 µM | 240 nM | > 100000 nM | 5.7% | – | Active | 3.55% | 19.6% | 213 nM | 8.56 µM | Active | 540 nM | Active | 435 nM | 5920 nM | Active | RFU [20]: 20 a.u.; Activity [14]: 70%; Activity [17]: 4.98%; Activity [19]: 10.2%
3 | COc1ccc(/C=N/NC(=O)c2[nH]c3ccc(Br)cc3c2-c2ccccc2)o1 | – | Active | – | 139 nM | > 100 µM | 77.5 nM | 747 nM | – | – | – | – | – | 18.4 nM | > 100 µM | Active | – | Active | 187 nM | 659 nM | Active | growth inhibition (GI) [21]: Active; growth inhibition (GI) [22]: Active; growth inhibition (GI) [23]: Active; GI50 [24]: 53.5 nM; CC50 [24, 29]: > 100 µM; GI50 [25]: 34.9 nM; LC50 [25]: > 100 µM; GI50 [26]: 47 nM; CC50 [26, 29]: > 100 µM; GI50 [27]: 84.5 nM; CC50 [27, 29]: > 100 µM; growth inhibition (GI) [28]: Active
4 | N#Cc1ccc(/C=N/NC(=O)c2[nH]c3ccc(Br)cc3c2-c2ccccc2)s1 | – | Active | – | 124 nM | 4.61 µM | 36 nM | > 100000 nM | – | inactive | – | – | – | 23 nM | > 100 µM | Active | – | Active | 195 nM | > 100000 nM | Active | –
